One data set deals with HeLa cells. The conditions noted are these: 100 μg/mL, CW 980 nm 0.35 W/cm^2. As to the method: As a model to examine the efficacy of 5-aminolevulinic acid-conjugated upconverting particles as described herein, particles prepared as described herein (having an 80 mol % Yb content), a 3-(4,5-dimethylthiazol-2-yl)-2,5-diphenyltetrazolium bromide (MTT) proliferation assay was conducted to determine inhibition of cell proliferation using photodynamic therapy with the nanoparticles prepared as described herein. In the cell proliferation assay, HeLa cells were exposed to 5-aminolevulinic acid-conjugated upconverting particles and various controls (all 100 μg/mL) for 4 h and the cells were then irradiated by irradiation of continuous wave 980 nm light at 1 W/cm^2. The results of the assay are shown in FIG. 8, which depicts cell viability as a function of irradiation time.
Then, impact of the lanthanide-doped upconverting nanoparticles on 5-ALA-induced photodynamic therapy was evaluated. […] Cells exposed to these control nanoparticles were irradiated at a biocompatible low power density of 0.35 W/cm^2.
A 96-well microtiter plate seeded with 1×10^4 HeLa cells/well was incubated overnight at 37° C. with 5% CO2. Cells were subsequently exposed to (i) 5-aminolevulinic acid functionalized upconverting nanoparticles comprising 80 mol % ytterbium (ALA-UCNPs, 100 μg/mL), (ii) hydrazide functionalized upconverting nanoparticles (no 5-ALA) (Hyd-UCNPs, 100 μg/mL), (iii) free 5-aminolevulinic acid (ALA, 100 μg/mL) or (iv) PBS (growth medium control) and then irradiated with CW 980 nm laser diode at 1 W/cm^2 for 0, 5, 10, or 20 min. After overnight incubation, cells were labeled with 12 mM solution of MTT in PBS for 4 h. Finally, the media was aspirated and replaced with 50 μL DMSO and cell viability was quantified by formazan absorption determined by a plate reader at 540 nm.
FIG. 8: Plots showing the viability of HeLa cells irradiated with CW 980 nm light at 1 W/cm^2 power density.
FIG. 9: Plots showing the viability of HeLa cells irradiated with CW 980 nm light at 0.35 W/cm^2 power density. […]

A short description of data set [1]: 5-Aminolevulinic acid loading determination by HPLC. The format is physicochemical. The conditions noted are these: HPLC of supernatants, back-calculation. An excerpt: FT-IR spectral analysis confirmed that the conjugation of 5-ALA to the nanoparticles was via a hydrazone linkage as shown in panels (d) and (e) of FIG. 7, which show (d) full and (e) detailed spectra for polyacrylic acid-coated upconverting nanoparticles, (PAA-UCNPs), hydrazide-functionalized upconverting nanoparticles (Hyd-UCNPs) and 5-ALA-conjugated upconverting nanoparticles. On the spectrum for Poly(acrylic) acid-functionalized UCNPs (PAA-UCNPs), the peak at 1636 cm^−1 is attributed to the resonance of the carboxyl groups. […]
FT-IR spectra were recorded on a Nicolet Nexus FT-IR spectrometer, using the SMART iTR™ for ATR measurements. The upconversion photoluminescence spectra were measured by a SPEX FluoroMax®-3 spectrofluorimeter (Horiba) (spectral resolution of 1 nm, emission slit of 5 nm, and integral period of 0.1 s) excited at 980 nm using a fiber-coupled laser diode introduced to the sample chamber of the spectrofluorimeter. […] The size distribution of the samples was determined by dynamic light scattering (DLS) equipped with a Zetasizer Nano-ZS (He—Ne laser wavelength at 633 nm) and an auto-titrator (Malvern Instruments, Malvern, UK). The absorbance for the MTT experiment and the fluorescence for DCFDA staining experiment was found using a microplate reader (Molecular Devices Co., Menlo Park, Calif.). […]

For the substance “β-NaYF4:Yb(20%),Er(2%)@β-NaYF4 ALA [reference compound]”, in the data set on HeLa cells, the cell killing entry was “no cell killing”. Besides, in data set [1], the “loading capacity for 5-ALA” value was roughly 4.5 µmol/mg.

(Values after patent publication US9956426B2, “Upconverting nanoparticles” (priority 2015, dated 2018).)
